Here are results for six molecules from patent US7476671B2, “2-amino-imidazo[4,5-d]pyridazin-4-ones, their preparation and their use as pharmaceutical compositions” (Boehringer Ingelheim International GmbH, priority 2004, dated 2009).

What is called IC50 is the concentration needed to halve the response being measured.

One data set concerns the target T1, DPP-IV (Homo sapiens, UniProt P27487).
T1 construct: an extract of the human colon carcinoma cell line Caco-2 is used as the DPP IV source; endogenous in cells; host or cells: Caco-2 (human colon carcinoma), differentiated to induce DPP-IV expression; Nonidet-P40 solubilised extract
Kind of data set: DPP-IV assay with extract of the human colon carcinoma cell line Caco-2 as DPP IV source, AFC substrate, fluorescence. The class given is biochemical. To be noted: solubilised Caco-2 protein, substrate 100 μM, 60 minutes at ambient temperature, 11-point curves; read-out: DPP IV inhibition IC50. The method, then: The differentiation of the cells in order to induce the DPP-IV expression was carried out in accordance with the description by Reiher et al. in an article entitled “Increased expression of intestinal cell line Caco-2”, which appeared in Proc. Natl. Acad. Sci. Vol. 90, pp. 5757-5761 (1993).
The cell extract was obtained from cells solubilised in a buffer (10 mM Tris HCl, 0.15 M NaCl, 0.04 t.i.u. aprotinin, 0.5% Nonidet-P40, pH 8.0) by centrifugation at 35,000 g for 30 minutes at 4° C. (to remove cell debris).
The DPP-IV assay was carried out as follows:
50 μl of substrate solution (AFC; AFC is amido-4-trifluoromethylcoumarin), final concentration 100 μM, were placed in black microtitre plates. 20 μl of assay buffer (final concentrations 50 mM Tris HCl, pH 7.8, 50 mM NaCl, 1% DMSO) was pipetted in. The reaction was started by the addition of 30 μl of solubilised Caco-2 protein (final concentration 0.14 μg of protein per well). The test substances under investigation were typically added prediluted to 20 μl, while the volume of assay buffer was then reduced accordingly. The reaction was carried out at ambient temperature, the incubation period was 60 minutes. Then the fluorescence was measured in a Victor 1420 Multilabel Counter, with the excitation wavelength at 405 nm and the emission wavelength at 535 nm. Dummy values (corresponding to 0% activity) were obtained in mixtures with no Caco-2 protein (volume replaced by assay buffer), control values (corresponding to 100% activity) were obtained in mixtures without any added substance. The potencies of the test substances in question, expressed as IC50 values, were calculated from dosage/activity curves consisting of 11 measured points in each case.

Data set [1] is described as follows: Tolerability after oral administration. The class given is in vivo. Conditions: oral administration of 10 mg/kg.

T1 sequence (P27487 whole entry): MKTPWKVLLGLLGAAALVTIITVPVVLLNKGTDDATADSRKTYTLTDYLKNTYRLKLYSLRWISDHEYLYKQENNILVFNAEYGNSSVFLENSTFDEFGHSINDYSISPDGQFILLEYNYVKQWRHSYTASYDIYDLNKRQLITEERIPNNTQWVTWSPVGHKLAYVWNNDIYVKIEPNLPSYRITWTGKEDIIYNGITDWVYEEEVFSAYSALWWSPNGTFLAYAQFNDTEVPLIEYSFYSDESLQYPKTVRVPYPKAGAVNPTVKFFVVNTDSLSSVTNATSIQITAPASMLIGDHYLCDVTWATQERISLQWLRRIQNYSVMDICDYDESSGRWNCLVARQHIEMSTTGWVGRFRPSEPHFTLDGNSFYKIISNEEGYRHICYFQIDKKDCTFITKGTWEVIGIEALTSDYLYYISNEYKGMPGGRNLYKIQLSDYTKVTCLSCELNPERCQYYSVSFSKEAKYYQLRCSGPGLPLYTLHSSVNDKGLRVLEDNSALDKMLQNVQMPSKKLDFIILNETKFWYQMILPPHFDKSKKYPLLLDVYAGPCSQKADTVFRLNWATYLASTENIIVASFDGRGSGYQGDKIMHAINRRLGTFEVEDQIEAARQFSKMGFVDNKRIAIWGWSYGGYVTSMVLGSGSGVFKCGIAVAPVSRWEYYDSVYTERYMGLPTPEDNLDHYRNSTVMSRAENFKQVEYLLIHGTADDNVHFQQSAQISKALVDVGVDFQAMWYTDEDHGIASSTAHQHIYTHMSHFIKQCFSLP

Take `CC#CCn1c(N(C)CCN)nc2cnn(Cc3nc(C)cc4ccccc34)c(=O)c21` [1(1), 2-[N-(2-aminoethyl)-N-methyl-amino]-3-(2-butyn-1-yl)-5-[(3-methyl-isoquinolin-1-yl)methyl]-3,5-dihydro-imidazo[4,5-d]pyridazin-4-one]: at DPP-IV, the IC50 is 10 nM. The same measure, in the same setting: the same measure for `CC#CCn1c(N(C)CC(C)(C)N)nc2cnn(Cc3ccccc3C#N)c(=O)c21` [2(1), 2-[N-(2-amino-2-methyl-propyl)-N-methyl-amino]-3-(2-butyn-1-yl)-5-(2-cyanophenyl-methyl)-3,5-dihydro-imidazo[4,5-d]pyridazin-4-one]: 336 nM; for `CC#CCn1c(N(C)CCN)nc2ccn(Cc3nc(C)cc4ccccc34)c(=O)c21` [1(2), 2-[N-(2-aminoethyl)-N-methyl-amino]-3-(2-butyn-1-yl)-5-[(3-methyl-isoquinolin-1-yl)methyl]-3,5-dihydro-imidazo[4,5-c]pyridin-4-one]: 34 nM. With `CC#CCn1c(N(C)CCN)nc2cnn(Cc3nc(C)c4ccccc4n3)c(=O)c21` [Example 1, 2-[N-(2-aminoethyl)-N-methyl-amino]-3-(2-butyn-1-yl)-5-[(4-methyl-quinazolin-2-yl)methyl]-3,5-dihydro-imidazo[4,5-d]pyridazin-4-one], the IC50 at DPP-IV is 1 nM. The “toxic side effects / tolerability” value in data set [1] is given as “no toxic side effects”. As for `CC#CCn1c(N(C)C[C@H](C)N)nc2cnn(Cc3nc(C)c4ccccc4n3)c(=O)c21` [Example 3, (S)-2-[N-(2-aminopropyl)-N-methyl-amino]-3-(2-butyn-1-yl)-5-[(4-methyl-quinazolin-2-yl)methyl]-3,5-dihydro-imidazo[4,5-d]pyridazin-4-one], the 50% inhibitory concentration (IC50) on DPP-IV stood at 2 nM. Same read-out and setting: the same measure for `CC#CCn1c(N(C)C[C@H](C)N)nc2cnn(Cc3ccccc3C#N)c(=O)c21` [Example 2, (S)-2-[N-(2-amino-propyl)-N-methyl-amino]-3-(2-butyn-1-yl)-5-(2-cyanophenylmethyl)-3,5-dihydro-imidazo[4,5-d]pyridazin-4-one]: 76 nM.
